Results from publication PMC7515946, “Targeting of Perforin Inhibitor into the Brain Parenchyma Via a Prodrug Approach Can Decrease Oxidative Stress and Neuroinflammation and Improve Cell Survival” (Molecular Neurobiology, 2020).
Where “and” joins values, the source holds several entries; their conditions need not be identical. Equal entries are not always repeated. Entries after “also recorded” stand apart in the source; their conditions may differ.

Legend:
LAT1 [1] = biological target: T1, LAT1 (Mus musculus, UniProt Q9Z127); experiment: Ability to bind to LAT1: inhibition of [14C]-L-leucine uptake in astrocytes; assay type: cell-based; conditions: mouse primary astrocytes, 0.76 μM [14C]-L-leucine, 5 min, 37 °C
T1 construct: endogenous in cells; host or cells: mouse primary astrocytes (C57BL/6JOlaHsd), cortex and hippocampi
Procedure: For the transporter-binding studies, the astrocytes were seeded on 24-well plates with a density of 10 × 10^4 cells/well 3 days before the experiments. After removal of the culture medium, the cells were carefully washed with pre-warmed HBSS (Hank’s balanced salt solution) containing choline chloride (125 mM), KCl (4.8 mM), MgSO4 (1.2 mM), KH2PO4 (1.2 mM), CaCl2 (1.3 mM), glucose (5.6 mM), and HEPES (25 mM) adjusted to pH 7.4 with 1 M NaOH. The cells were pre-incubated with 500 μL of pre-warmed HBSS at 37 °C for 5 min before the experiments. To study the ability of studied compounds to inhibit the uptake of a known LAT1 substrate, the cells were incubated at 37 °C for 5 min with an uptake buffer (HBSS, 250 μL) containing 0.76 μM (0.25 mCi/mL or […]) of [^14C]-L-leucine (PerkinElmer, Waltham, MA, USA) and 0.1–1000 μM of studied compound (or HBSS as blank). After incubation, the uptake was stopped by adding 500 μL of ice-cold HBSS, and the cells were washed two times with ice-cold HBSS (2 × 500 μL). The cells were then lysed with 500 μL of NaOH (0.1 M) for 60 min and the lysate was mixed with 3.5 mL of Emulsifier-Safe cocktail (Ultima Gold, PerkinElmer, Waltham, MA, USA). The radioactivity in the cells was measured by liquid scintillation counting (MicroBeta^2 counter, PerkinElmer Waltham, MA, USA). Half of the maximum inhibitory concentration (IC50) values were calculated by nonlinear regression analysis (fitting the curve to log (concentration) vs. remaining normalized viability).

[2] = biological target: T2, acetylcholinesterase (AChE) (Mus musculus, UniProt P21836); experiment: biochemical; conditions: for IC50: mouse brain S9 fraction, acetylthiocholine 1 mM, 30 min endpoint
T2 construct: mouse brain S9 fraction was prepared by homogenizing freshly collected mouse brain; from tissue; host or cells: mouse brain S9 fraction (9000 x g supernatant)
T2 sequence (P21836 32-614): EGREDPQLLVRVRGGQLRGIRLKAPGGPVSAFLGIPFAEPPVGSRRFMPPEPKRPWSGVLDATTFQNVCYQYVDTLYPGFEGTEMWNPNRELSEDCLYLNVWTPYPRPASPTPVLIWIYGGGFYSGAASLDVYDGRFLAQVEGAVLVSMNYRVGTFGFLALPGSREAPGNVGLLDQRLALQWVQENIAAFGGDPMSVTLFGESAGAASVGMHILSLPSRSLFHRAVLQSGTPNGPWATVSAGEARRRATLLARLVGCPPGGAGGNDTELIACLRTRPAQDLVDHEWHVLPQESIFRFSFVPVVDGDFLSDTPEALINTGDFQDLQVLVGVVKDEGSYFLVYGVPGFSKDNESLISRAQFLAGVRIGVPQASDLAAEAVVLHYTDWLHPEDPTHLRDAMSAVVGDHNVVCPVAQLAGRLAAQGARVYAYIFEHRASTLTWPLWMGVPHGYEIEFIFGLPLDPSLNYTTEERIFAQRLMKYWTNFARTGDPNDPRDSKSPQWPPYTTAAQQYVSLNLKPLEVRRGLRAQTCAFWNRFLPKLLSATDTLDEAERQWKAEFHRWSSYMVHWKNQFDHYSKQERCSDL
Procedure: Briefly, mouse brain S9 fraction was prepared by homogenizing freshly collected mouse brain with 50 mM Tris-buffered saline (TBS) (pH 7.4) (1:4 w/v), centrifuging the homogenate at 9000 × g for 20 min at 4 °C and collecting the supernatant. The supernatant was then diluted 1:10 with phosphate buffer (100 mM; pH 7.0) and mixed with Ellman’s reagent (DTNB; 1 mM) and studied compounds in DMSO (DMSO concentration was less than 0.5%) on a 96-well plate as 3 parallel assays.
According to the Hanes–Woolf plots, the ratio of initial substrate concentration to the reaction velocity ([S]/v) was plotted against the substrate concentration (μM).

[3] = biological target: T3, purified human β-site amyloid precursor protein (APP) cleaving enzyme 1 (BACE1) (Homo sapiens, UniProt P56817); experiment: BACE1 FRET inhibition assay; assay type: biochemical; conditions: 1 and 10 μM, respectively, 30 min
T3 construct: purchased AnaSpec, Inc. (Fremont, CA, USA), SensoLyte 520 BACE1 Assay kit
Excerpt: A fluorometric assay was used to screen the inhibitory effect of the studied compounds on purified human β-site amyloid precursor protein (APP) cleaving enzyme 1 (BACE1) using a fluorescence resonance energy transfer (FRET) peptide technique (SensoLyte© 520 BACE1 Assay kit, AnaSpec, Inc., Fremont, CA, USA) according to the manufacturer’s protocol. […] The sequence of the FRET peptide has been derived from the β-secretase cleavage site of β-amyloid precursor protein (APP) with Swedish mutation, which enhances β-secretase to process APP resulting in an early onset of AD. Thus, active β-secretase cleaved the FRET substrate into two separate fragments resulting in the release of HiLyte™ Fluor 488 fluorescence that was measured by the Envision plate reader (EnVision, Perkin Elmer, Waltham, MA, USA) at λex 490 nm and λem 520 nm.

[4] = design: method as in PMID 27266990; conditions: cited from earlier work
mouse primary astrocytes = test system: mouse primary astrocytes; design: method as in PMID 31492955; conditions: in the presence of a specific LAT1 inhibitor; cited from earlier work
LAT1 [5] = test system: LAT1; design: method as in PMID 31610281; conditions: human breast adenocarcinoma cells (MCF-7); read-out: IC50 of [14C]-L-leucine uptake (LAT1 binding) in MCF-7 cells; cited from earlier work
[6] = design: method as in PMID 26705152; conditions: cited from earlier work
[7] = design: method as in PMID 27266990; conditions: during 5 h incubation; cited from earlier work
[8] = design: method as in PMID 26705152; conditions: cited from earlier work; remark: listed apart in the source
[9] = design: method as in PMID 31492955; conditions: cited from earlier work
[10] = design: method as in PMID 31492955; conditions: neurons, astrocytes, and microglia homogenates; cited from earlier work

T1 sequence (Q9Z127 whole entry): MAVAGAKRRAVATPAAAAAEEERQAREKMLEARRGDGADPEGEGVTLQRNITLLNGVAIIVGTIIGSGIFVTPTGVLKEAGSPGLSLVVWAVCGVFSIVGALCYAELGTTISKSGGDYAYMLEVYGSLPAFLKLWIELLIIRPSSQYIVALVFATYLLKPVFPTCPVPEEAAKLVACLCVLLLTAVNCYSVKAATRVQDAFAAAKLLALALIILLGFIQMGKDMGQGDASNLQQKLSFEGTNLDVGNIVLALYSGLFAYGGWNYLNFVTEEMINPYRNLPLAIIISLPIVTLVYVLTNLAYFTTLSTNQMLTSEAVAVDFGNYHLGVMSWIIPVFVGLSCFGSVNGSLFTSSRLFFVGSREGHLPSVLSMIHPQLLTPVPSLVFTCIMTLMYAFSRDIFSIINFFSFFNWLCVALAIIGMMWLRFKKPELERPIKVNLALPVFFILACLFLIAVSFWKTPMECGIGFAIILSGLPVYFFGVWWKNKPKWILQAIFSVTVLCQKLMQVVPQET
T1 sequence (P10852 whole entry partner): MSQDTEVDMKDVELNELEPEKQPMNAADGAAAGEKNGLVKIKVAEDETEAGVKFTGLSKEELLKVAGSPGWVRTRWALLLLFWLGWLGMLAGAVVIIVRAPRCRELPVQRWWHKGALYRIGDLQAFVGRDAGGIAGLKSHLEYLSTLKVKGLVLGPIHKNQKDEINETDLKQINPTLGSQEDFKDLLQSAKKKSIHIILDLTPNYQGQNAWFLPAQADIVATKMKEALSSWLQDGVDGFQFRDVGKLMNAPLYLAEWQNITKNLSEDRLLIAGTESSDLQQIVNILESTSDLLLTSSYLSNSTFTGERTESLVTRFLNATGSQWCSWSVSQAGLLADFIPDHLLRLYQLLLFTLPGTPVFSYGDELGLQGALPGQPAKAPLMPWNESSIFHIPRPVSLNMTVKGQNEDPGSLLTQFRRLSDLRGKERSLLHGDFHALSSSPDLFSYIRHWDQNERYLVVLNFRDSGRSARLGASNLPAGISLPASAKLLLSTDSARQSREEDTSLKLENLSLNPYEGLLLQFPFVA
T3 sequence (P56817 22-501 limits assumed): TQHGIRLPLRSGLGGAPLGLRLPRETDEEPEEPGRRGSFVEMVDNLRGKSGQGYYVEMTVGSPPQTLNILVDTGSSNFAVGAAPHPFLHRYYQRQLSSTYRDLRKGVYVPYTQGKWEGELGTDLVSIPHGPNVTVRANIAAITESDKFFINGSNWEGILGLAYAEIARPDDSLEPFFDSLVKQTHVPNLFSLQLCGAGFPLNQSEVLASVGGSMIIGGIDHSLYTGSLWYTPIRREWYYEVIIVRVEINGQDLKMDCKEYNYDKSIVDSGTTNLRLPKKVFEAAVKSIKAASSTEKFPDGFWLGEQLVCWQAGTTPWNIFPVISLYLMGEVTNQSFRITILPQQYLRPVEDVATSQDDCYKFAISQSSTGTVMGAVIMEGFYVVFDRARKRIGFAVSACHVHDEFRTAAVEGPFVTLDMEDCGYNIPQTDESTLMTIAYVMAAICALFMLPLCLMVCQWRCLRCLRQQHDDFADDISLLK

In the case of `O=C1OCc2cc(-c3ccc(-c4ccc(CO)cc4)s3)ccc21` [PFI], the “IC50 in astrocytes (inhibition of [14C]-L-leucine uptake)” value (LAT1 [1]) is reported as “did not exhibit any interaction with LAT1; also recorded: No inhibition”, the IC50 [2] is reported as 12 µM and 12.3 µM and the “Inhibition of BACE1 activity” value [3] is reported as 71–96%. For the same compound, the “Amount of released PFI in the brain after the prodrug treatment” value ([4]; after PFI-PD 23 μmol/kg) was 0.01 nmol/g of tissue and the “Brain levels of PFI after PFI dosing” value ([4]; dose 23 μmol/kg, LC-MS/MS) was “below the detection limit”.

With `N[C@H](Cc1cccc(C(=O)OCc2ccc(-c3ccc(-c4ccc5c(c4)COC5=O)s3)cc2)c1)C(=O)O` [PFI-PD] the IC50 (LAT1 [1]) was 4 µM and 3.5 µM, the “Type of AChE inhibition” value ([2]; Hanes–Woolf plot) was “mixed-type” and the “Vmax of AChE reaction in presence of inhibitor” value ([2]; mouse brain S9, acetylthiocholine, PFI-PD (12 μM), without inhibitor 2.21 ± 0.01) was 2.17 nmol/min/mg protein and 2.17 ± 0.02 nmol/min/mg protein. For the same compound, the IC50 [2] was 8 µM and 8.15 µM, the “Inhibition of cellular uptake into primary astrocytes by a specific LAT1 inhibitor” value (mouse primary astrocytes) was “over 70%” and the IC50 (LAT1 [5]) was 1.54 µM. For the same compound, the “Bioconversion half-life in rat liver S9 subcellular fraction” value [6] was “approximately 55 min”, the “Prodrug bioconverted in mouse brain S9 subcellular fraction” value [7] was “approximately 50%” and the “Stability in human plasma” value [8] was “completely stable”. The “Bioconversion half-life in primary mouse astrocyte homogenate” value [9] was “approximately 6 h”, the “Half-lives in brain cell homogenates” value [10] was 4 to 6 h and the “Brain Cmax” value ([4]; dose 23 μmol/kg) was 0.12 nmol/g of tissue. For the same compound, the “Unbound brain Cmax,u” value ([4]; dose 23 μmol/kg) was 0.002 nmol/g of tissue.
